Consider four compounds from US9603896B2, “Peptide compounds and methods of production and use thereof” (priority 2012, dated 2017).

A short description of one data set: in vivo. The following applies: rat, iv, 20 mg/kg. Here is the method:
The purpose of this example was to assess the pharmacokinetics, distribution, and excretion of ^14C-BCC03-5RMP (SEQ ID NO:23) following a single intravenous administration to male rats. Pharmacokinetic, excretion, and distribution profiles of ^14C-BCC03-5RMP-derived radioactivity were examined in male Sprague Dawley rats following a single intravenous administration of ^14C-BCC03-5RMP (20 mg/kg; 125 μCi/kg). ^14C-BCC03-5RMP was formulated in 5% (v:v) dextrose in water, pH 5.5 and was administered at a dose volume of 5 mL/kg. For assessment of pharmacokinetics of total radioactivity (Group 1), blood was collected at 0.25, 0.5, 1, 2, 4, 8, 24, 48, and 72 hours postdose. For assessment of excretion profiles, urine was collected from 0-8 and 8-24 hours postdose, and at 24-hour intervals through 168 hours postdose. Feces was collected at 24-hour intervals through 168 hours postdose. For assessment of distribution profiles, one animal/time point was sacrificed at 0.25, 1, 4, 24, and 72 hours postdose, and the carcasses were prepared for quantitative whole-body autoradiography (QWBA). Concentrations of radioactivity in whole blood, plasma, urine, feces (after oxidation), cage rinse, cage wash, and carcass were determined by liquid scintillation counting (LSC). Tissue concentrations were calculated by interpolation from each standard curve using MCID™ analysis software (InterFocus Imaging Ltd Corp., UK). Pharmacokinetic parameters for total radioactivity in blood and plasma were calculated using WinNonlin Professional Edition (version 5.2, Pharsight Corporation, St. Louis, Mo.).

The subject of data set [1] is human corneal epithelial cell (HCEC). The experiment in a line: HCEC chemotaxis, modified Boyden chemotaxis chamber assay. Format: cell-based. Here is the method:
The effect of buffer control (0.1% BSA in Gey's buffer), heparin binding-epidermal growth factor (HB-EGF, 50 ng/ml), recombinant CAP37 (rCAP37, 250 ng/ml), 120-146QH (10^−12M, 10^−10 M, 10^−8 M, 10^−6M, and 10^−4M,) and 120-146QR (10^−10M, 10^−8M, 10^−6M, and 10^−4M) on HCEC chemotaxis was determined by the modified Boyden chemotaxis chamber method. HCEC chemotaxis was measured in response to HB-EGF, rCAP37, and peptides 120-146QH (SEQ ID NO:29) and 120-146QR (SEQ ID NO:28) after incubation for 3 hours at 37° C. Chemotaxis is expressed as a percent migration. The buffer control (no chemoattractant) is arbitrarily assigned the value of 100% migration. Data are expressed as means±SEM and are calculated from 6 observations for each test point. **P<0.01 by Wilcoxon signed-rank test as compared to controls.
Chemotaxis assays were performed using the modified Boyden chemotaxis chamber assay. Peptide 120-146QH was used at 10^−4 M, 10^−6 M, 10^−8 M, 10^−10 M, and 10^−12 M, and peptide 120-146QR was used at 10^−4 M, 10^−6M, 10^−8M, and 10^−10 M.

In data set [2] the test system is E. coli ATCC® strain 25922™. Type of data set: cell-based, Escherichia coli. The settings on record: Table 6, 5 × 10^3 CFU/ml unless italicized = 1 × 10^5 CFU/ml. Also noted: Effects of Peptide Compounds on Escherichia coli ATCC ® 25922 ™: unit not given here. The procedure:
(§1) The three peptide compounds BCC01-5RMP (SEQ ID NO:21), BCC02-5RMP (SEQ ID NO:22), and BCC03-5RMP (SEQ ID NO:23) were assayed for in vitro bactericidal activity against Pseudomonas aeruginosa, Escherichia coli, Salmonella typhimurium, and Acinetobacter baumannii. […] The CFU remaining at the end of 60 to 180 minute incubation was determined, and the data plotted as a log reduction in CFU/ml.
(§2) Tables 4-6 show the results of various peptides and peptide compounds against P. aeruginosa and E. coli strains. Tables 4 and 5 show the results of an investigation of the effects of peptide or peptide compounds BCC03-5RMP (SEQ ID NO:23), BCC03-MP (SEQ ID NO:24) and BCC03-5R (SEQ ID NO:20) against P. aeruginosa ATCC® strain 27853™ and E. coli ATCC® strain 25922™ (American Type Culture Collection, Manassas, Va.). […] Table 6 compares the activity of several other compounds, including the “5R” versions of BCC01, i.e., SEQ ID NO:18 (which comprises SEQ ID NO:1 with five additional arginines), the “5R” version of BCC02 (i.e., SEQ ID NO:19, which comprises SEQ ID NO:2 with five additional arginines), and BCC03-5RMP (SEQ ID NO:23), and BCC03-MP (SEQ ID NO:24, i.e., without the five additional R residues). The data generally indicate the superiority of BCC03-5RMP (SEQ ID NO:23) against E. coli, and the superiority of the 5R or 5RMP versions of the peptide over the “AEEA only” peptide against P. aeruginosa.

The subject of data set [3] is Pseudomonas aeruginosa ATCC® 27853™. Format: cell-based. The settings on record: for Effects of Peptide Compounds on Pseudomonas aeruginosa ATCC ® 27853 ™: Table 6, 5 × 10^3 CFU/ml unless italicized = 1 × 10^5 CFU/ml. Here is the method: as §1, §2
(§3) For FIGS. 10-13, in vitro bactericidal assays were performed using a starting inoculum of 1×10^6 CFU/ml of the bacterial suspension. The CFU remaining at the end of the 60-180 minute incubation was determined, and the data was plotted as log reduction in CFU/ml.
(§4) In particular, each of the test peptides (CAP37 peptides 120-146WR, 120-146WH, and 95-122 (SEQ ID NOs: 30, 31, and 26, respectively)) was used at 25, 12.5, 6.25, and 3.12 μM. Gentamicin was used at 4 μg/ml. 1×10^6/ml Acinetobacter baumannii ATCC® BAA-747″ or Pseudomonas aeruginosa ATCC® 27853™ (American Type Culture Collection, Manassas, Va.) were incubated with the peptides, negative buffer control (tryptone saline), and positive control gentamicin at pH 5.5 or 7.2. A 60 minute incubation was used for Acinetobacter baumannii ATCC® BAA747™, while a 180 minute incubation was used for Pseudomonas aeruginosa ATCC® 27853™. 50 μl aliquots were plated out on agar plates and incubated overnight. Colony forming units were counted after overnight incubation and CFU/ml calculated.
For FIG. 14, 1×10^6/ml Pseudomonas aeruginosa ATCC® 27853™ were incubated with each of the test peptides (CAP37 peptides 120-146WR, 120-146WH, 120-146QR, 120-146QH, 120-146QR-5RMP, and 120-146QH-5RMP (SEQ ID NOs: 30, 31, 28, 29, 32, and 33, respectively)) at 150, 75, and 37.5 μg/ml, or negative buffer control (tryptone saline), for 180 minutes at pH 5.5. 50 μl aliquots were plated out on agar plates and incubated overnight. Colony forming units were counted after overnight incubation and CFU/ml calculated.

Data set [4] relates to Acinetobacter baumannii ATCC® BAA-747™. The experiment in a line: In vitro bactericidal assay (CFU remaining, log reduction). Format: cell-based. The settings on record: 60 minutes, peptides up to 25 μM, gentamicin 4 μg/ml. Here is the method:
The three peptide compounds BCC01-5RMP (SEQ ID NO:21), BCC02-5RMP (SEQ ID NO:22), and BCC03-5RMP (SEQ ID NO:23) were assayed for in vitro bactericidal activity against Pseudomonas aeruginosa, Escherichia coli, Salmonella typhimurium, and Acinetobacter baumannii. The starting inoculum for all experiments was 1×10^6 colony forming units (CFU)/ml. The CFU remaining at the end of 60 to 180 minute incubation was determined, and the data plotted as a log reduction in CFU/ml.
as §3, §4

Like-named read-outs stand apart in the source and are kept apart here. Square brackets hold non-standard residues; d marks the D form. Ends that are not written are not given here. Peptide text beside a SMILES is read from it. AEEA = NCCOCCOCC(=O)O

In the case of `CC[C@H](C)[C@H](NC(=O)[C@H](CC(C)C)NC(=O)[C@H](C)NC(=O)CNC(=O)CNC(=O)[C@H](CS)NC(=O)[C@H](Cc1ccccc1)NC(=O)[C@H](Cc1c[nH]cn1)NC(=O)[C@H](CCCNC(=N)N)NC(=O)CNC(=O)[C@H](CCC(N)=O)NC(=O)[C@H](CC(N)=O)NC(=O)[C@H](CCCNC(=N)N)NC(=O)[C@H](CCCNC(=N)N)NC(=O)[C@H](CCCNC(=N)N)NC(=O)[C@H](CCCNC(=N)N)NC(=O)COCCOCCNC(=O)COCCOCCN)C(=O)N[C@@H](Cc1c[nH]cn1)C(=O)N[C@@H](C)C(=O)N[C@@H](CCCNC(=N)N)C(=O)N[C@@H](Cc1ccccc1)C(=O)N[C@H](C(=O)N[C@@H](CCSC)C(=O)N[C@H](C(=O)N[C@@H](C)C(=O)N[C@@H](C)C(=O)N[C@@H](CO)C(=O)N[C@@H](CO)C(=O)N[C@@H](Cc1ccccc1)C(=O)N[C@@H](CCC(N)=O)C(=O)N[C@@H](CCCNC(=N)N)C(=O)O)[C@@H](C)O)C(C)C` [^14C-BCC03-5RMP] (H-[AEEA][AEEA]RRRRNQGRHFCGGALIHARFVMTAASSFQR-OH; N-terminus and C-terminus assumed), in “in vivo” (male, Sprague Dawley, total radioactivity), the blood plasma ratio fell in the range of 0.689 to 3.11. In “in vivo”, the “C0, Radio-equivalents in blood” value worked out at 38500 ± 2160 ng eq/g; the “C0, Radio-equivalents in plasma” value amounted to 51800 ± 4160 ng eq/g; the “Clearance of radioactivity, plasma relative to blood” value was “approximately 2 fold”; the “blood:brain barrier passage of radioactivity” value is “crossed the blood:brain barrier”. In “in vivo”, the “blood:testis barrier passage of radioactivity” value is “crossed the blood:testis barrier”; the “exposure (AUC0-∞), blood relative to plasma” value is “approximately 2 fold”; the “tissue:plasma concentration ratios, majority of tissues” value is on record as “greater than one”; the “tissue:plasma concentration ratios, renal, adrenal, pancreatic, and pituitary tissues” value is listed as “up to 103”. Moreover, the “volume of distribution of total radioactivity, blood relative to plasma” value in “in vivo” is reported as “approximately 1.6 fold”.
As for “GTRCQVAGWGSQRSGGRLSRFPRFVNV [Peptide 120-146QR]”, the “migration of HCECs vs buffer control” value in data set [1] (120-146QH at 10^−4, 10^−6, 10^−8, 10^−10 M, 120-146QR at 10^−6, 10^−8 M, HB-EGF 50 ng/ml, rCAP37 250 ng/ml, 3 hours at 37° C) was “significantly increase migration”. Also, the “migration compared with the whole CAP37 protein” value in data set [1] (120-146QH at 10^−6 M and 10^−8M) is on record as “less than the migration obtained with the whole protein”.
`CC[C@H](C)[C@H](NC(=O)[C@H](CC(C)C)NC(=O)[C@H](C)NC(=O)CNC(=O)CNC(=O)[C@H](CS)NC(=O)[C@H](Cc1ccccc1)NC(=O)[C@H](Cc1c[nH]cn1)NC(=O)[C@H](CCCNC(=N)N)NC(=O)CNC(=O)[C@H](CCC(N)=O)NC(=O)[C@H](CC(N)=O)NC(=O)COCCOCCNC(=O)COCCOCCN)C(=O)N[C@@H](Cc1c[nH]cn1)C(=O)N[C@@H](C)C(=O)N[C@@H](CCCNC(=N)N)C(=O)N[C@@H](Cc1ccccc1)C(=O)N[C@H](C(=O)N[C@@H](CCSC)C(=O)N[C@H](C(=O)N[C@@H](C)C(=O)N[C@@H](C)C(=O)N[C@@H](CO)C(=O)N[C@@H](CO)C(=O)N[C@@H](Cc1ccccc1)C(=O)N[C@@H](CCC(N)=O)C(=O)O)[C@@H](C)O)C(C)C` [BCC03-MP] (H-[AEEA][AEEA]NQGRHFCGGALIHARFVMTAASSFQ-OH; N-terminus and C-terminus assumed): the “Effects of Peptide Compounds on Escherichia coli ATCC ® 25922 ™” value in data set [2] (6.25 μg/ml) is listed as 6.4; in data set [2] (12.5 μg/ml), 21.8; in data set [2] (25 μg/ml), 27.2; in data set [2] (50 μg/ml), 24.6; in data set [2] (100 μg/ml) it was 27.5; in data set [2] (200 μg/ml), 46.0. Besides, in data set [2] (400 μg/ml), the “Effects of Peptide Compounds on Escherichia coli ATCC ® 25922 ™” value came to 58.2. Also, the “Effects of Peptide Compounds on Pseudomonas aeruginosa ATCC ® 27853 ™” value is −38.2 in data set [3] (6.25 μg/ml); -45.6 in data set [3] (12.5 μg/ml); −27.3 in data set [3] (25 μg/ml); −2.9 in data set [3] (50 μg/ml); 44.0 in data set [3] (100 μg/ml); 74.4 in data set [3] (200 μg/ml). Further, in data set [3] (400 μg/ml), the “Effects of Peptide Compounds on Pseudomonas aeruginosa ATCC ® 27853 ™” value stood at 92.8.
Take gentamicin [reference compound]: the “bactericidal activity against Acinetobacter baumannii” value was “unable to kill the bacteria” in data set [4] (pH 5.5) and “active against the bacteria” in data set [4] (pH 7.2). Further, in data set [3] (120-146WR at 25 μM, gentamicin 4 μg/ml), the “activity against P. aeruginosa” value was “highly active”. For the same compound, the “reduction of CFU/ml” value in data set [3] (pH 5.5, 180 minutes, highest concentrations of peptides (25 μM), gentamicin 4 μg/ml) was 2 logs.
